Laboratory results published in ChEMBL document CHEMBL1148414, “Conformer- and alignment-independent model for predicting structurally diverse competitive CYP2C9 inhibitors” (J Med Chem, 2004).

Target: Cytochrome P450 2C9 (Homo sapiens, UniProt P11712)
Assay: Binding affinity towards cytochrome P450 2C9
Format: ADME

Chain of Cytochrome P450 2C9 (P11712 whole entry): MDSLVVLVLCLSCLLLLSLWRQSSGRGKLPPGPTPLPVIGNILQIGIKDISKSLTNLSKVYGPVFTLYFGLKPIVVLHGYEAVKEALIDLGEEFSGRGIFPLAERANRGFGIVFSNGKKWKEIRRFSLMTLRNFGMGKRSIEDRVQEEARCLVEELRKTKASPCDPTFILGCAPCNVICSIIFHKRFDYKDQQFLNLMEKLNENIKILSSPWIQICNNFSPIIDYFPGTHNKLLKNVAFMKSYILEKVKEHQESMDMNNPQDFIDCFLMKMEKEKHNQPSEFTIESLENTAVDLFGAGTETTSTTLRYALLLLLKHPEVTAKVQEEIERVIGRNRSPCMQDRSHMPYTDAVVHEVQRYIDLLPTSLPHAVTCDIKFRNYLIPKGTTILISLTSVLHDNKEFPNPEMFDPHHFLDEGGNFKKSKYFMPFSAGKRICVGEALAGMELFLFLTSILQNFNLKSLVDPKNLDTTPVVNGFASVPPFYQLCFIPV

Compound | Ki [µM]
COCCCOc1ccnc(C[S@+]([O-])c2nc3ccccc3[nH]2)c1C | 37
O=C1NC(=O)C2(N1)c1ccccc1-c1ccccc12 | 125
CC(=O)C[C@H](c1ccccc1)C1C(=O)Oc2ccccc2C1O (some centres undefined) | 13.6
Nc1c(Oc2ccc(Cl)cc2Cl)ccc(Cl)c1S(=O)(=O)O | 20
Clc1ccc(CO[C@H](Cn2ccnc2)c2ccc(Cl)cc2Cl)c(Cl)c1 | 6
COc1ccnc(C[S@@+]([O-])c2nc3cc(OC(F)F)ccc3[nH]2)c1OC | 145
COC(=O)c1ccc2nc([S@+]([O-])Cc3nccc(OC)c3OC)[nH]c2c1 | 140
[O-][S@@+](Cc1cc(OCC2CC2)ccn1)c1nc2ccc(F)cc2[nH]1 | 60
COC(=O)c1ccc2[nH]c([S@@+]([O-])Cc3nccc(OC)c3OC)nc2c1 | 64
[O-][S@+](Cc1cc(OCC2CC2)ccn1)c1nc2cc(F)ccc2[nH]1 | 93
CO[C@@]1(C)C[C@H](c2ccccc2)c2c(c3ccccc3oc2=O)O1 | 16
COc1ccnc(C[S@+]([O-])c2nc3cc(OC(F)F)ccc3[nH]2)c1OC | 64
Cc1nn(C)c(C)c1NC(=O)c1ccccc1NS(=O)(=O)c1cc(Cl)sc1Cl | 17
CO[C@]1(C)C[C@H](c2ccccc2)C2C(=O)Oc3ccccc3C2O1 (some centres undefined) | 16
Clc1ccc(CO[C@@H](Cn2ccnc2)c2ccc(Cl)cc2Cl)c(Cl)c1 [(R)-MICONAZOLE] | 6
COCCCOc1ccnc(C[S@@+]([O-])c2nc3ccccc3[nH]2)c1C [DEXRABEPRAZOLE] | 36
COCCCC/C(=N\OCCN)c1ccc(C(F)(F)F)cc1 [FLUVOXAMINE] | 8.5
O=c1c(O)c(-c2ccc(O)cc2)oc2cc(O)cc(O)c12 [KAEMPFEROL] | 6
COc1ccc2nc(S(=O)(=O)Cc3ncc(C)c(OC)c3C)[nH]c2c1 [OMEPRAZOLE SULFONE] | 35
COc1ccc2[nH]c([S+]([O-])Cc3ncc(C)c(OC)c3C)nc2c1 (centres undefined) [OMEPRAZOLE] | 45
CCCCC1C(=O)N(c2ccccc2)N(c2ccccc2)C1=O [PHENYLBUTAZONE] | 19
CC(=O)[C@H]1CC[C@H]2[C@@H]3CCC4=CC(=O)CC[C@]4(C)[C@H]3CC[C@]12C [PROGESTERONE] | 5.5
c1ccc2[nH]c(-c3cscn3)nc2c1 [THIABENDAZOLE] | 245
COc1cc(C(=O)NS(=O)(=O)c2ccccc2C)ccc1Cc1cn(C)c2ccc(NC(=O)OC3CCCC3)cc12 [ZAFIRLUKAST] | 2.5
